According to patent US20040063668A1, “Novel acyclic nucleoside phosphonate derivatives, salts thereof and process for the preparation of the same” (priority 2001, published 2004):
Where two headings read alike, the source gives them in different places.

Columns and labels:
Hepatitis B Virus (HBV) = assay: Inhibition of hepatitis B virus replication in HepG2.2.15 cell culture, quantitative PCR; type: cell-based; settings: read-out: EC50(μM) in HBV
HBV = type: in vivo, HBV transgenic mice (FVB strain); settings: effect = blood does not contain HBV DNA
[1] = Determination of cytotoxicity (MTT) in HepG2.2.15 cells; settings: human
HepG2.2.15 = assay: as above; settings: read-out: CC50(μM) in HepG2.2.15; MTT, 10th day from treatment with drug
[2] = Hepatitis B virus, 240 h, HepG2.2.15 culture medium, 10 days after treatment with drug, PCR of HBV DNA
[3] = subcutaneous, 10 mg/kg/day for 9 days

| SMILES | EC50 (Hepatitis B Virus (HBV); [2]) | CC50 at 10 days [1] | also measured |
| --- | --- | --- | --- |
| CCOc1nc(N)nc2c1ncn2CC1(OCP(=O)(O)O)CC1 [Compound 23, ({1-[(2-amino-6-ethoxy-9H-purin-9-yl)methyl]cyclopropyl}oxy)methyl phosphonic acid] | > 0.1 µM | > 1 mM | Result: number of mice showing pharmacological effect/number of total mice (HBV; [3]): 4/4 |
| Nc1nc(Cl)c2ncn(CC3(OCP(=O)(OCC(F)(F)F)OCC(F)(F)F)CC3)c2n1 [Compound 46, bis(2,2,2-trifluoroethyl)({1-[(2-amino-6-chloro-9H-purin-9-yl)methyl]cyclopropyl}oxy)methylphosphonate] | > 1 µM | > 1 mM | – |
| Cc1nc(N)nc2c1ncn2CC1(OCP(=O)(O)O)CC1 [Compound 25, ({1-[(2-amino-6-methyl-9H-purin-9-yl)methyl]cyclopropyl}oxy)methyl phosphonic acid] | > 5 µM | > 1 mM | – |
| CN(C)c1nc(N)nc2c1ncn2CC1(OCP(=O)(O)O)CC1 [Compound 15, [(1-{[2-amino-6-(dimethylamino)-9H-purin-9-yl]methyl}cyclopropyl)oxy]methyl phosphonic acid] | > 0.8 µM | > 1 mM | – |
| Nc1nc(N2CCOCC2)c2ncn(CC3(OCP(=O)(O)O)CC3)c2n1 [Compound 37, [(1-{[2-amino-6-(4-morpholinyl)-9H-purin-9-yl]methyl}cyclopropyl)oxy]methyl phosphonic acid] | > 5 µM | > 1 mM | – |
| CC(C)(C)OC(=O)OCOP(=O)(COC1(Cn2cnc3cnc(N)nc32)CC1)OCOC(=O)OC(C)(C)C [Compound 69, bis{[(t-butoxycarbonyl)oxy]methyl}({1-[(2-amino-9H-purin-9-yl)methyl]cyclopropyl}oxy)methylphosphonate] | > 1 µM | > 1 mM | – |
| CN1CCN(c2nc(N)nc3c2ncn3CC2(OCP(=O)(O)O)CC2)CC1 [Compound 41, [(1-{[2-amino-6-(4-methyl-1-piperazinyl)-9H-purin-9-yl]methyl}cyclopropyl)oxy]methylphosphonic Acid] | > 1 µM | > 1 mM | – |
| Nc1nc(O)c2ncn(CC3(OCP(=O)(O)O)CC3)c2n1 [Compound 5, ({1-[(2-amino-6-hydroxy-9H-purin-9-yl)methyl]cyclopropyl}oxy)methyl phosphonic acid] | > 0.1 µM | > 1 mM | – |
| CC(C)(C)C(=O)OCOP(=O)(COC1(Cn2cnc3c(N)ncnc32)CC1)OCOC(=O)C(C)(C)C [Compound 2, 3-[({1-[(6-amino-9H-purin-9-yl)methyl]cyclopropyl}oxy)methyl]-8,8-dimethyl-3,7-dioxo-2,46-trioxa-3 ^5-phosphanon-1-yl pivalate] | > 0.1 µM | > 1 mM | – |
| Nc1nc(O)c2ncn(CC3(OCP(=O)(OCC(F)(F)F)OCC(F)(F)F)CC3)c2n1 [Compound 45, bis(2,2,2-trifluoroethyl)({1-[(2-amino-6-hydroxy-9H-purin-9-yl)methyl]cyclopropyl}oxy)methylphosphonate] | > 0.5 µM | > 1 mM | – |
| Cc1ccc(Sc2nc(N)nc3c2ncn3CC2(OCP(=O)(OCC(F)(F)F)OCC(F)(F)F)CC2)cc1 [Compound 62, bis(2,2,2-trifluoroethyl){[1-({2-amino-6-[(4-methylphenyl)sulfanyl]-9H-purin-9-yl}methyl)cyclopropyl]oxy}methylphosphonate] | > 0.5 µM | > 1 mM | – |
| Nc1nc(NC2CC2)c2ncn(CC3(OCP(=O)(O)O)CC3)c2n1 [Compound 11, ({1-[(2-amino-6-cyclopropylamino-9H-purin-9-yl)methyl]cyclopropyl}oxy)meth-ylplhosplhonic acid] | > 20 µM | > 1 mM | – |
| Nc1ncnc2c1ncn2CC1(OCP(=O)(O)O)CC1 [Compound 1, ({1-[(6-amino-9H-purin-9-yl)methyl]cyclopropyl}oxy)methylphosphonic acid] | > 1 µM | > 1 mM | – |
| Nc1ncnc2c1ncn2CCOCP(=O)(O)O [PMEA, reference compound] | – | – | EC50 (Hepatitis B Virus (HBV); HepG2.2.15 culture medium, 10 days after treatment with drug, PCR of HBV DNA): 5 µM; CC50 (HepG2.2.15): > 500 µM |
| Nc1nc(Cl)c2ncn(CC3(OCP(=O)(O)O)CC3)c2n1 [Compound 3, ({1-[(2-amino-6-chloro-9H-purin-9-yl)methyl]cyclopropyl}oxy)methylphosphonic acid] | > 0.5 µM | > 1 mM | – |
| Cc1ccc(Sc2nc(N)nc3c2ncn3CC2(OCP(=O)(O)O)CC2)cc1 [Compound 66, {[1-({2-amino-6-[(4-methylphenyl)sulfanyl]-9H-purin-9-yl}methyl)cyclopropyl]oxy}methylphosphonic acid] | > 0.1 µM | > 1 mM | Result: number of mice showing pharmacological effect/number of total mice (HBV; [3]): 4/4 |
| CC(C)Nc1nc(N)nc2c1ncn2CC1(OCP(=O)(O)O)CC1 [Compound 17, [(1-{[2-amino-6-(isopropylamino)-9H-purin-9-yl]methyl}cyclopropyl)oxy]methyl phosphonic acid] | > 0.5 µM | > 1 mM | – |
| CC1CC1(Cn1cnc2cnc(N)nc21)OCP(=O)(O)O (stereo not drawn) [Compound 98, ({1-[(2-amino-9H-purin-9-yl)methyl]-2-methylcyclopropyl}oxy)methylphosphonic acid] | > 1 µM | > 1 mM | Result: number of mice showing pharmacological effect/number of total mice (HBV; [3]): 4/4 |
| Nc1ncc2ncn(CC3(OCP(=O)(O)O)CC3)c2n1 [Compound 9, ({1-[(2-amino-9H-purin-9-yl)methyl]cyclopropyl}oxy)methylphosphonic acid] | > 0.3 µM | > 1 mM | – |
| CC1CC1(Cn1cnc2c(O)nc(N)nc21)OCP(=O)(O)O (stereo not drawn) [Compound 97, ({1-[(2-amino-6-hydroxy-9H-purin-9-yl)methyl]-2-methylcyclopropyl}oxy)methylphosphonic acid] | > 0.05 µM | > 1 mM | Result: number of mice showing pharmacological effect/number of total mice (HBV; [3]): 4/4 |
| Cc1cn(CC2(OCP(=O)(O)O)CC2)c(=O)[nH]c1=O [Compound 31, [(1-{[5-methyl-2,4-dioxo-3,4-dihydro-1(2H)-pyrimnidinyl]methyl}cyclopropyl)oxy]methylphosphonic acid] | > 50 µM | > 1 mM | – |
| CCNc1nc(N)nc2c1ncn2CC1(OCP(=O)(O)O)CC1 [Compound 13, ({1-[(2-amino-6-ethylamino-9H-purin-9-yl)methyl]cyclopropyl}oxy)methylphosphonic Acid] | > 1 µM | > 1 mM | – |
| Nc1nc(N)c2ncn(CC3(OCP(=O)(O)O)CC3)c2n1 [Compound 19, ({1-[(2,6-diamino-9H-purin-9-yl)methyl]cyclopropyl}oxy)methylphosphonic acid] | > 0.3 µM | > 1 mM | – |
| CC(C)(C)C(=O)OCOP(=O)(COC1(Cn2cnc3cnc(N)nc32)CC1)OCOC(=O)C(C)(C)C [Compound 10, 3-[({1-[(2-amino-9H-purin-9-yl)methyl]cyclopropyl}oxy)methyl]-8,8-dimethyl-3,7-dioxo-2,4,6-trioxa-3 ^5-phosphanon-1-yl pivalate] | – | > 1 mM | EC50 (Hepatitis B Virus (HBV); Hepatitis B virus, HepG2.2.15, 240 h): > 0.08 µM; Result: number of mice showing pharmacological effect/number of total mice (HBV; oral, 0.4 mg/kg/day for 9 days): 5/6; Result: number of mice showing pharmacological effect/number of total mice (HBV; oral, 2 mg/kg/day for 9 days): 4/4 |
